Values quoted from earlier work as cited in US20100278946A1, “HERBAL COMPOSITIONS COMPRISING PLANT MATERIAL OF ARTEMISIA HERBA-ALBA (ASSO) ASTERACEAE AND/OR EXTRACTS THEREOF” (priority 2007, published 2010).
Where two headings read alike, the source gives them in different places.

Assays:
[1] = tested on: mice
[2] = tested on: noncompetitive blocker site of the GABA gated chloride channel
[3] = tested on: gamma-aminobutyric acid (GABA) type A receptor; settings: rat dorsal root ganglion neurons
[4] = 2.5 min after administration of alpha-thujone
[5] = 30 min after administration of alpha-thujone, 40-60 mg/kg

In the case of `CC1C(=O)CC2(C(C)(C)O)CC12` (stereo not drawn) [7-hydroxy-alpha-thujone], the “level in the brain” value [4] is listed as 29 ppm and the “level in the brain” value [5] is listed as 1.5-8.4 ppm.
In the case of `CC1C(=O)CC2(C(C)C)CC12` (stereo not drawn) [Beta-thujone, beta-thujone], the “toxicity compared with alpha-thujone” value ([1]; mice (Rice and Wilson, 1976) and Drosophila) is listed as “less toxic” and the “potency relative to alpha-thujone (fold less potent)” value ([2]; [3H]EBOB assay) is listed as 2.3 fold.
For `CC(C)[C@]12CC(=O)[C@H](C)[C@H]1C2` [alpha-thujone], the “time to death after tonic convulsion” value ([1]; mice at the higher dose (60 mg/kg)) is listed as at most 1 min, the mortality ([1]; mice, dose of 30 mg/kg) is listed as “no death” and the mortality ([1]; mice, dose of 60 mg/kg) is listed as 100%. For the same compound, the “i.p. LD50” value ([1]; mice, i.p.) was “about 45 mg/kg”, the “mode of inhibition of EBOB binding” value [2] was “competitive inhibitor” and the “potency compared with 7-hydroxy-alpha-thujone (fold more potent)” value ([2]; [3H]EBOB binding assay) was 56 fold. The “effect on GABA-induced peak currents” value [3] was “suppressed”, the “level in the brain” value [4] was 11 ppm and the “level in the brain” value [5] was 0.3-1.0 ppm.
In the case of `CN1C(=O)CN=C(c2ccccc2)c2cc(Cl)ccc21` [diazepam], the “survival of mice given an otherwise lethal dose of alpha-thujone” value ([1]; intraperitoneal administration 15 min before alpha-thujone at 100 mg/kg) is given as “almost all of the mice surviving”.
